Experiments:
Type in all cases: in vivo
[1] = test system: Alopecurus; experiment: Pre-emergence test/greenhouse; conditions: after three weeks
Procedure: (§1) Pre-emergence Test Solvent: 5 parts by weight of acetone Emulsifier: 1 part by weight of alkylaryl polyglycol ether To produce a suitable preparation of active compound, 1 part by weight of active compound is mixed with the stated amount of solvent, the stated amount of emulsifier is added and the concentrate is diluted with water to the desired concentration. Seeds of the test plants are sown in normal soil. After about 24 hours, the soil is sprayed with the preparation of the active compound in such a way as to apply the particular amounts of active compound desired per unit area The concentration of the spray liquor is chosen so that the particular amounts of active compound desired are applied in 1000 l of water/ha. After three weeks, the degree of damage to the plants is rated in % damage in comparison to the development of the untreated control. The figures denote: [table]

[2] = test system: Amaranthus; experiment: Pre-emergence test/greenhouse; conditions: after three weeks
Procedure: as §1

[3] = test system: Chenopodium; experiment: Pre-emergence test/greenhouse; conditions: after three weeks
Procedure: as §1

[4] = test system: Lolium; experiment: Pre-emergence test/greenhouse; conditions: 125 g ai./ha, after three weeks
Procedure: as §1

[5] = test system: Matricaria; experiment: Pre-emergence test/greenhouse; conditions: 125 g ai./ha, after three weeks
Procedure: as §1

[6] = test system: Solanum; experiment: Pre-emergence test/greenhouse; conditions: 125 g ai./ha, after three weeks
Procedure: as §1

[7] = test system: Sorghum; experiment: Pre-emergence test/greenhouse; conditions: 125 g ai./ha, after three weeks
Procedure: as §1

[8] = test system: weeds; experiment: Pre-emergence test; conditions: cf. Tables A-1 to A-5
Procedure: as §1

[9] = test system: Amaranthus; experiment: Post-emergence test/greenhouse; conditions: for Amaranthus, % damage: Table B-4, post-emergence, rated after three weeks vs untreated control; for % damage, Amaranthus: post-emergence, after three weeks
Procedure: as §1, with “Post-emergence” for “Pre-emergence”, “Test plants which have a height” for “Seeds”, “5-15 cm” for “the test plants”, “are” for “are sown in normal soil. After about 24 hours, the soil is”, “area.” for “area”

[10] = test system: Solanum; experiment: Post-emergence test/greenhouse; conditions: for Solanum, % damage: Table B-4, post-emergence, rated after three weeks vs untreated control; for % damage, Solanum: post-emergence, after three weeks
Procedure: as §1, with “Post-emergence” for “Pre-emergence”, “Test plants which have a height” for “Seeds”, “5-15 cm” for “the test plants”, “are” for “are sown in normal soil. After about 24 hours, the soil is”, “area.” for “area”

[11] = test system: Sorghum; experiment: Post-emergence test/greenhouse; conditions: 60 g ai./ha; for Sorghum, % damage: Table B-4, post-emergence, rated after three weeks vs untreated control
Procedure: as §1, with “Post-emergence” for “Pre-emergence”, “Test plants which have a height” for “Seeds”, “5-15 cm” for “the test plants”, “are” for “are sown in normal soil. After about 24 hours, the soil is”, “area.” for “area”

[12] = test system: Xanthium; experiment: Post-emergence test/greenhouse; conditions: for Xanthium, % damage: Table B-4, post-emergence, rated after three weeks vs untreated control; for % damage, Xanthium: post-emergence, after three weeks
Procedure: as §1, with “Post-emergence” for “Pre-emergence”, “Test plants which have a height” for “Seeds”, “5-15 cm” for “the test plants”, “are” for “are sown in normal soil. After about 24 hours, the soil is”, “area.” for “area”

[13] = test system: weeds; experiment: Post-emergence test; conditions: cf. Tables B-1 to B-4
Procedure: as §1, with “Post-emergence” for “Pre-emergence”, “Test plants which have a height” for “Seeds”, “5-15 cm” for “the test plants”, “are” for “are sown in normal soil. After about 24 hours, the soil is”, “area.” for “area”

[14] = test system: Echinochloa; experiment: Post-emergence test/greenhouse; conditions: Table B-4, post-emergence, 60 g ai./ha, rated after three weeks vs untreated control
Procedure: as §1, with “Emulsifier:” for “Pre-emergence Test Solvent: 5 parts by weight of acetone Emulsifier:”, “Test plants which have a height” for “Seeds”, “5-15 cm” for “the test plants”, “are” for “are sown in normal soil. After about 24 hours, the soil is”, “area.” for “area”, “control.” for “control. The figures denote: [table]”

[15] = test system: Matricaria; experiment: Post-emergence test/greenhouse; conditions: after three weeks
Procedure: as §1, with “Post-emergence” for “Pre-emergence”, “Test plants which have a height” for “Seeds”, “5-15 cm” for “the test plants”, “are” for “are sown in normal soil. After about 24 hours, the soil is”, “area.” for “area”

[16] = test system: Wheat; experiment: Post-emergence test/greenhouse; conditions: after three weeks
Procedure: as §1, with “Post-emergence” for “Pre-emergence”, “Test plants which have a height” for “Seeds”, “5-15 cm” for “the test plants”, “are” for “are sown in normal soil. After about 24 hours, the soil is”, “area.” for “area”

[17] = test system: Bromus; experiment: Pre-emergence test/greenhouse; conditions: after three weeks
Procedure: as §1

[18] = test system: Cotton; experiment: Pre-emergence test/greenhouse; conditions: after three weeks
Procedure: as §1

[19] = test system: Echinochloa; experiment: Pre-emergence test/greenhouse; conditions: after three weeks
Procedure: as §1

[20] = test system: Veronica; experiment: Pre-emergence test/greenhouse; conditions: after three weeks
Procedure: as §1

[21] = test system: Wheat; experiment: Pre-emergence test/greenhouse; conditions: after three weeks
Procedure: as §1

[22] = test system: Maize; experiment: Pre-emergence test/greenhouse; conditions: 125 g ai./ha, after three weeks
Procedure: as §1

[23] = test system: Viola; experiment: Pre-emergence test/greenhouse; conditions: 125 g ai./ha, after three weeks
Procedure: as §1

[24] = test system: Alopecurus; experiment: Post-emergence test/greenhouse; conditions: 60 g ai./ha, after three weeks
Procedure: as §1, with “Post-emergence” for “Pre-emergence”, “Test plants which have a height” for “Seeds”, “5-15 cm” for “the test plants”, “are” for “are sown in normal soil. After about 24 hours, the soil is”, “area.” for “area”

[25] = test system: Ipomoea; experiment: Post-emergence test/greenhouse; conditions: 60 g ai./ha, after three weeks
Procedure: as §1, with “Post-emergence” for “Pre-emergence”, “Test plants which have a height” for “Seeds”, “5-15 cm” for “the test plants”, “are” for “are sown in normal soil. After about 24 hours, the soil is”, “area.” for “area”

[26] = test system: Lolium; experiment: Post-emergence test/greenhouse; conditions: 60 g ai./ha, after three weeks
Procedure: as §1, with “Post-emergence” for “Pre-emergence”, “Test plants which have a height” for “Seeds”, “5-15 cm” for “the test plants”, “are” for “are sown in normal soil. After about 24 hours, the soil is”, “area.” for “area”

[27] = test system: Stellaria; experiment: Post-emergence test/greenhouse; conditions: 60 g ai./ha, after three weeks
Procedure: as §1, with “Post-emergence” for “Pre-emergence”, “Test plants which have a height” for “Seeds”, “5-15 cm” for “the test plants”, “are” for “are sown in normal soil. After about 24 hours, the soil is”, “area.” for “area”

CCOc1nn(C(=O)NS(=O)(=O)c2c(OC)cccc2SCCF)c(=O)n1C [Example 59]
% damage, Alopecurus ([1]; 125 g ai./ha): 100%
% damage, Amaranthus ([2]; 125 g ai./ha): 100%
% damage, Chenopodium ([3]; 125 g ai./ha): 100%
% damage, Lolium [4]: 100%
% damage, Matricaria [5]: 100%
% damage, Solanum [6]: 100%
% damage, Sorghum [7]: 100%
activity against weeds [8]: very strong activity
Amaranthus, % damage ([9]; 60 g ai./ha): 100%
Solanum, % damage ([10]; 60 g ai./ha): 90%
Sorghum, % damage [11]: 100%
Xanthium, % damage ([12]; 60 g ai./ha): 95%
activity against weeds [13]: very strong activity
Echinochloa, % damage [14]: 100%

CSc1cccc(SC)c1S(=O)(=O)NC(=O)n1nc(SC)n(C)c1=O [Example 51]
% damage, Amaranthus ([9]; 125 g ai./ha): 95%
% damage, Matricaria ([15]; 125 g ai./ha): 95%
% damage, Solanum ([10]; 125 g ai./ha): 95%
% damage, Wheat ([16]; 125 g ai./ha): 20%
% damage, Xanthium ([12]; 125 g ai./ha): 95%
activity against weeds [13]: very strong activity

COc1nn(C(=O)NS(=O)(=O)c2c(SC)cccc2SC)c(=O)n1C [Example 50]
Amaranthus, % damage ([9]; 60 g ai./ha): 95%
Solanum, % damage ([10]; 60 g ai./ha): 95%
Sorghum, % damage [11]: 95%
Xanthium, % damage ([12]; 60 g ai./ha): 95%
activity against weeds [13]: very strong activity
Echinochloa, % damage [14]: 80%

COc1nn(C(=O)NS(=O)(=O)c2c(SC)cccc2C(F)(F)F)c(=O)n1C [Example 61]
% damage, Alopecurus ([1]; 60 g ai./ha): 95%
% damage, Amaranthus ([2]; 60 g ai./ha): 100%
% damage, Bromus ([17]; 60 g ai./ha): 100%
% damage, Chenopodium ([3]; 60 g ai./ha): 100%
% damage, Cotton ([18]; 60 g ai./ha): 0%
% damage, Echinochloa ([19]; 60 g ai./ha): 100%
% damage, Veronica ([20]; 60 g ai./ha): 80%
% damage, Wheat ([21]; 60 g ai./ha): 30%
activity against weeds [8]: very strong activity

CCSc1cccc(C)c1S(=O)(=O)NC(=O)n1nc(CC)n(C)c1=O [Example 55]
% damage, Amaranthus ([9]; 60 g ai./ha): 95%
% damage, Matricaria ([15]; 60 g ai./ha): 95%
% damage, Solanum ([10]; 60 g ai./ha): 90%
% damage, Wheat ([16]; 60 g ai./ha): 20%
% damage, Xanthium ([12]; 60 g ai./ha): 100%
activity against weeds [13]: very strong activity

CCOc1nn(C(=O)NS(=O)(=O)c2c(SC(C)(C)C)cccc2C(F)(F)F)c(=O)n1C [Example 60]
% damage, Alopecurus ([1]; 125 g ai./ha): 90%
% damage, Amaranthus ([2]; 125 g ai./ha): 100%
% damage, Bromus ([17]; 125 g ai./ha): 95%
% damage, Chenopodium ([3]; 125 g ai./ha): 100%
% damage, Cotton ([18]; 125 g ai./ha): 20%
% damage, Echinochloa ([19]; 125 g ai./ha): 100%
% damage, Veronica ([20]; 125 g ai./ha): 100%
% damage, Wheat ([21]; 125 g ai./ha): 0%
activity against weeds [8]: very strong activity

COc1cccc(SC(C)C)c1S(=O)(=O)NC(=O)n1nc(OC)n(C)c1=O [Example 24]
% damage, Alopecurus ([1]; 125 g ai./ha): 95%
% damage, Amaranthus ([2]; 125 g ai./ha): 100%
% damage, Chenopodium ([3]; 125 g ai./ha): 100%
% damage, Cotton ([18]; 125 g ai./ha): 0%
% damage, Maize [22]: 0%
% damage, Matricaria [5]: 70%
% damage, Sorghum [7]: 70%
% damage, Viola [23]: 100%
activity against weeds [8]: very strong activity
% damage, Alopecurus [24]: 90%
% damage, Ipomoea [25]: 90%
% damage, Lolium [26]: 60%
% damage, Solanum ([10]; 60 g ai./ha): 95%
% damage, Sorghum ([11]; post-emergence, after three weeks): 90%
% damage, Stellaria [27]: 95%
% damage, Wheat ([16]; 60 g ai./ha): 15%
activity against weeds [13]: very strong activity

— patent publication US6677277B1, “Substituted sulphonyl amino(thio)carbonyl compounds and their use as herbicides” (Bayer Aktiengesellschaft, priority 1996, dated 2004)
